We go through four compounds from patent publication US10968217B2, “Tetrahydropyridopyrimidines for the treatment and prophylaxis of hepatitis B virus infection” (Hoffmann-La Roche Inc., priority 2016, dated 2021).

In one test the test system is HBsAg. Put plainly: HBsAg assay (CLIA of secreted HBsAg in HepG2.2.15 culture supernatant). Type of test: cell-based, HBV. As to conditions: Hepatitis B virus, HepG2.2.15, read-out: IC50 (HBsAg assay). The method, then: (§1) HepG2.2.15 cells (Acs et al. Proc Natl Acad Sci USA, 84, (1987), 4641-4), a constitutively HBV-expressing cell line were cultured in DMEM+Glutamax-I medium (Invitrogen, Carlsbad, Calif., USA), supplemented with 10% fetal bovine serum (Invitrogen) and G418 (Invitrogen) at a final concentration of 200 mg/L and maintained in 5% CO2 at 37° C.
HepG2.2.15 cells were seeded in duplicate into white, 96-well plates at 1.5×10^4 cells/well. The cells were treated with a three-fold serial dilution series of the compounds in DMSO. The final DMSO concentration in all wells was 1% and DMSO was used as no drug control.
The HBsAg chemiluminescence immunoassay (CLIA) kit (Autobio Diagnostics Co., Zhengzhou, China, Catalog number: CL0310-2) was used to measure the levels of secreted HBV antigens semi-quantitatively. For the detection 50 μL/well culture supernatant was used and HBsAg was quantified using HBsAg chemiluminescence immunoassay (CLIA) kit (Autobio Diagnostics Co., Zhengzhou, China, Catalog number: CL0310-2), 50 μL of the supernatant was transferred to the CLIA assay plate and 50 μL of enzyme conjugate reagent was added into each well. The plates were sealed and gently agitated for 1 hour at room temperature. The supernatant-enzyme-mixture was discarded and wells were washed 6 times with 300 μL of PBS. The residual liquid was removed by plating the CLIA plate right side down on absorbent tissue paper. 25 μL of substrates A and B were added to each well. Luminance was measured using a luminometer (Mithras LB 940 Multimode Microplate Reader) after 10 minutes incubation. Dose-response curves were generated and the IC50 value was extrapolated by using the E-WorkBook Suite (ID Business Solutions Ltd., Guildford, UK). The IC50 was defined as the compound concentration at which HBsAg secretion was reduced by 50% compared to the no drug control.

Another test has as its system HBV DNA. The experiment in a line: HBV DNA assay (real-time qPCR of extracellular HBV DNA, HepG2.2.15 cells). Type of test: cell-based. As to conditions: Hepatitis B virus, 144 h, extracellular HBV DNA in supernatant, six days after treatment, read-out: IC50 (Anti HBV DNA production activity). The method, then:
as §1
The assay employs real-time qPCR (TaqMan) to directly measure extracellular HBV DNA copy number in the cell supernatant. HepG2.2.15 cells were plated in 96-well microtiter plates before treatment with complete medium (DMEM, Glutamax, 10% FBS, 1% Penicillin/Streptomycin, 250 μg/mL Genetycin, final DMSO concentration is 1%). Only the interior wells were utilized to reduce “edge effects” observed during cell culture, the exterior wells were filled with complete medium to help minimize sample evaporation. […]
(In qPCR the cycle at which signal appears reflects the starting amount.)

Structures are written as SMILES. pIC50: −log10 of the molar value.

Consider `COc1ccc(C(=O)N2CCc3nc(-c4ccccn4)ncc3C2C)s1` (centres unmarked) [Example 58, (5-Methoxy-2-thienyl)-[5-methyl-2-(2-pyridyl)-7,8-dihydro-5H-pyrido[4,3-d]pyrimidin-6-yl]methanone], for which the results for the pIC50 in the test with HBsAg and in the test with HBV DNA were 6.55 and 4.38, respectively.
For `CC1c2cnc(-c3ncccn3)nc2CCN1C(=O)c1n[nH]c2ccc(F)cc12` (centres unmarked) [Example 64, (5-Fluoro-1H-indazol-3-yl)-(5-methyl-2-pyrimidin-2-yl-7,8-dihydro-5H-pyrido[4,3-d]pyrimidin-6-yl)methanone], the pIC50 (commonly the IC50 on a negative log10 scale, so that one unit is a factor of ten) with HBsAg was 6.68.
For the compound `CC1c2cnc(-c3ncccn3)nc2CCN1C(=O)c1nn(Cc2ccccc2)c2ccccc12` (centres unmarked) [Example 65, (1-Benzylindazol-3-yl)-(5-methyl-2-pyrimidin-2-yl-7,8-dihydro-5H-pyrido[4,3-d]pyrimidin-6-yl)methanone], the pIC50 in the test on HBsAg was 6.41.
`COc1ccc2[nH]nc(C(=O)N3CCc4nc(-c5ncccn5)ncc4C3C)c2c1` (centres unmarked) [Example 66, (5-Methoxy-1H-indazol-3-yl)-(5-methyl-2-pyrimidin-2-yl-7,8-dihydro-5H-pyrido[4,3-d]pyrimidin-6-yl)methanone]: the pIC50 with HBsAg is 5.87.
